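All cell lines were grown in 96-well plates and treated with compound for 48 hours. Definition used: TGI = concentration required for complete inhibition of growth.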
Tested on: OVCAR-4 ovarian
Test: DTP human tumour cell line panel, 48 h

SMILES	TGI
NP(=O)(Oc1c2occc2cc2ccc(=O)oc12)N(CCCl)CCCl (configuration not stated)	> 100 µM
CCOC(=O)/C=C(/C(=O)OCC)n1ccc(=O)n(Cc2cn(COCCOC(C)=O)nn2)c1=O	42.7 µM
O=C1CC(=Nc2ccc(Cl)cc2)C(c2ccccc2)N1c1ccccc1 (configuration not stated)	> 100 µM
C=CC(CCc1ccc(C(=O)OCC)cc1)c1c(N)nc(N)[nH]c1=O (configuration not stated)	> 100 µM
CCOP(C)(=O)C(N)Cc1ccc(OC)c(OC)c1 (configuration not stated)	> 100 µM

Tested on: MDA-N
Test: DTP human tumour cell line panel, 48 h

SMILES	TGI
NP(=O)(Oc1c2occc2cc2ccc(=O)oc12)N(CCCl)CCCl (configuration not stated)	> 100 µM
CCOC(=O)c1nc2ccc(C(F)(F)F)cc2nc1NCc1cc(OC)c(OC)c(OC)c1	76 µM
CC(C)(C)OC(=O)NC(Cc1ccc(OCc2ccccc2)cn1)C(=O)N1CCCCC1 (configuration not stated)	> 100 µM
CCOC(=O)/C=C(/C(=O)OCC)n1ccc(=O)n(Cc2cn(COCCOC(C)=O)nn2)c1=O	> 100 µM
O=C1CC(=Nc2ccc(Cl)cc2)C(c2ccccc2)N1c1ccccc1 (configuration not stated)	10.8 µM
C=CC(CCc1ccc(C(=O)OCC)cc1)c1c(N)nc(N)[nH]c1=O (configuration not stated)	> 100 µM
CCOP(C)(=O)C(N)Cc1ccc(OC)c(OC)c1 (configuration not stated)	> 100 µM

Tested on: NCI-H460 lung
Test: DTP human tumour cell line panel, 48 h

SMILES	TGI
NP(=O)(Oc1c2occc2cc2ccc(=O)oc12)N(CCCl)CCCl (configuration not stated)	> 100 µM
CC(C)(C)OC(=O)NC(Cc1ccc(OCc2ccccc2)cn1)C(=O)N1CCCCC1 (configuration not stated)	> 100 µM
CCOC(=O)/C=C(/C(=O)OCC)n1ccc(=O)n(Cc2cn(COCCOC(C)=O)nn2)c1=O	29 µM
O=C1CC(=Nc2ccc(Cl)cc2)C(c2ccccc2)N1c1ccccc1 (configuration not stated)	> 100 µM
C=CC(CCc1ccc(C(=O)OCC)cc1)c1c(N)nc(N)[nH]c1=O (configuration not stated)	> 100 µM
CCOP(C)(=O)C(N)Cc1ccc(OC)c(OC)c1 (configuration not stated)	> 100 µM

Tested on: UACC-257 melanoma
Test: DTP human tumour cell line panel, 48 h

SMILES	TGI
NP(=O)(Oc1c2occc2cc2ccc(=O)oc12)N(CCCl)CCCl (configuration not stated)	> 100 µM
CCOC(=O)c1nc2ccc(C(F)(F)F)cc2nc1NCc1cc(OC)c(OC)c(OC)c1	> 100 µM
CC(C)(C)OC(=O)NC(Cc1ccc(OCc2ccccc2)cn1)C(=O)N1CCCCC1 (configuration not stated)	47.3 µM
CCOC(=O)/C=C(/C(=O)OCC)n1ccc(=O)n(Cc2cn(COCCOC(C)=O)nn2)c1=O	42.4 µM
O=C1CC(=Nc2ccc(Cl)cc2)C(c2ccccc2)N1c1ccccc1 (configuration not stated)	> 100 µM
C=CC(CCc1ccc(C(=O)OCC)cc1)c1c(N)nc(N)[nH]c1=O (configuration not stated)	> 100 µM

Tested on: SR leukemia
Test: DTP human tumour cell line panel, 48 h

SMILES	TGI
NP(=O)(Oc1c2occc2cc2ccc(=O)oc12)N(CCCl)CCCl (configuration not stated)	> 100 µM
CCOC(=O)c1nc2ccc(C(F)(F)F)cc2nc1NCc1cc(OC)c(OC)c(OC)c1	48.5 µM
CC(C)(C)OC(=O)NC(Cc1ccc(OCc2ccccc2)cn1)C(=O)N1CCCCC1 (configuration not stated)	93 µM
CCOC(=O)/C=C(/C(=O)OCC)n1ccc(=O)n(Cc2cn(COCCOC(C)=O)nn2)c1=O	52.6 µM
O=C1CC(=Nc2ccc(Cl)cc2)C(c2ccccc2)N1c1ccccc1 (configuration not stated)	45.5 µM
C=CC(CCc1ccc(C(=O)OCC)cc1)c1c(N)nc(N)[nH]c1=O (configuration not stated)	> 100 µM
CCOP(C)(=O)C(N)Cc1ccc(OC)c(OC)c1 (configuration not stated)	> 100 µM

Tested on: CAKI-1 renal
Test: DTP human tumour cell line panel, 48 h

SMILES	TGI
NP(=O)(Oc1c2occc2cc2ccc(=O)oc12)N(CCCl)CCCl (configuration not stated)	> 100 µM
CCOC(=O)c1nc2ccc(C(F)(F)F)cc2nc1NCc1cc(OC)c(OC)c(OC)c1	> 100 µM
CC(C)(C)OC(=O)NC(Cc1ccc(OCc2ccccc2)cn1)C(=O)N1CCCCC1 (configuration not stated)	> 100 µM
CCOC(=O)/C=C(/C(=O)OCC)n1ccc(=O)n(Cc2cn(COCCOC(C)=O)nn2)c1=O	14 µM
O=C1CC(=Nc2ccc(Cl)cc2)C(c2ccccc2)N1c1ccccc1 (configuration not stated)	5.71 µM
C=CC(CCc1ccc(C(=O)OCC)cc1)c1c(N)nc(N)[nH]c1=O (configuration not stated)	> 100 µM
CCOP(C)(=O)C(N)Cc1ccc(OC)c(OC)c1 (configuration not stated)	> 100 µM

Tested on: SNB-19 CNS
Test: DTP human tumour cell line panel, 48 h

SMILES	TGI
NP(=O)(Oc1c2occc2cc2ccc(=O)oc12)N(CCCl)CCCl (configuration not stated)	> 100 µM
CCOC(=O)c1nc2ccc(C(F)(F)F)cc2nc1NCc1cc(OC)c(OC)c(OC)c1	> 100 µM
CC(C)(C)OC(=O)NC(Cc1ccc(OCc2ccccc2)cn1)C(=O)N1CCCCC1 (configuration not stated)	> 100 µM
CCOC(=O)/C=C(/C(=O)OCC)n1ccc(=O)n(Cc2cn(COCCOC(C)=O)nn2)c1=O	> 100 µM
O=C1CC(=Nc2ccc(Cl)cc2)C(c2ccccc2)N1c1ccccc1 (configuration not stated)	> 100 µM
C=CC(CCc1ccc(C(=O)OCC)cc1)c1c(N)nc(N)[nH]c1=O (configuration not stated)	> 100 µM
CCOP(C)(=O)C(N)Cc1ccc(OC)c(OC)c1 (configuration not stated)	> 100 µM

Tested on: SK-MEL-28 melanoma
Test: DTP human tumour cell line panel, 48 h

SMILES	TGI
NP(=O)(Oc1c2occc2cc2ccc(=O)oc12)N(CCCl)CCCl (configuration not stated)	> 100 µM
CCOC(=O)c1nc2ccc(C(F)(F)F)cc2nc1NCc1cc(OC)c(OC)c(OC)c1	> 100 µM
CC(C)(C)OC(=O)NC(Cc1ccc(OCc2ccccc2)cn1)C(=O)N1CCCCC1 (configuration not stated)	> 100 µM
CCOC(=O)/C=C(/C(=O)OCC)n1ccc(=O)n(Cc2cn(COCCOC(C)=O)nn2)c1=O	35.1 µM
O=C1CC(=Nc2ccc(Cl)cc2)C(c2ccccc2)N1c1ccccc1 (configuration not stated)	> 100 µM
C=CC(CCc1ccc(C(=O)OCC)cc1)c1c(N)nc(N)[nH]c1=O (configuration not stated)	> 100 µM
CCOP(C)(=O)C(N)Cc1ccc(OC)c(OC)c1 (configuration not stated)	> 100 µM

Tested on: RXF 393 renal
Test: DTP human tumour cell line panel, 48 h

SMILES	TGI
NP(=O)(Oc1c2occc2cc2ccc(=O)oc12)N(CCCl)CCCl (configuration not stated)	> 100 µM
CCOC(=O)c1nc2ccc(C(F)(F)F)cc2nc1NCc1cc(OC)c(OC)c(OC)c1	> 100 µM
CC(C)(C)OC(=O)NC(Cc1ccc(OCc2ccccc2)cn1)C(=O)N1CCCCC1 (configuration not stated)	65.3 µM
CCOC(=O)/C=C(/C(=O)OCC)n1ccc(=O)n(Cc2cn(COCCOC(C)=O)nn2)c1=O	56.2 µM
O=C1CC(=Nc2ccc(Cl)cc2)C(c2ccccc2)N1c1ccccc1 (configuration not stated)	> 100 µM
C=CC(CCc1ccc(C(=O)OCC)cc1)c1c(N)nc(N)[nH]c1=O (configuration not stated)	> 100 µM
CCOP(C)(=O)C(N)Cc1ccc(OC)c(OC)c1 (configuration not stated)	> 100 µM

Tested on: HOP-62 NSCLC
Test: DTP human tumour cell line panel, 48 h

SMILES	TGI
NP(=O)(Oc1c2occc2cc2ccc(=O)oc12)N(CCCl)CCCl (configuration not stated)	> 100 µM
CCOC(=O)c1nc2ccc(C(F)(F)F)cc2nc1NCc1cc(OC)c(OC)c(OC)c1	> 100 µM
CC(C)(C)OC(=O)NC(Cc1ccc(OCc2ccccc2)cn1)C(=O)N1CCCCC1 (configuration not stated)	> 100 µM
CCOC(=O)/C=C(/C(=O)OCC)n1ccc(=O)n(Cc2cn(COCCOC(C)=O)nn2)c1=O	> 100 µM
O=C1CC(=Nc2ccc(Cl)cc2)C(c2ccccc2)N1c1ccccc1 (configuration not stated)	> 100 µM
C=CC(CCc1ccc(C(=O)OCC)cc1)c1c(N)nc(N)[nH]c1=O (configuration not stated)	> 100 µM
CCOP(C)(=O)C(N)Cc1ccc(OC)c(OC)c1 (configuration not stated)	> 100 µM

Tested on: RPMI-8226 leukemia
Test: DTP human tumour cell line panel, 48 h

SMILES	TGI
NP(=O)(Oc1c2occc2cc2ccc(=O)oc12)N(CCCl)CCCl (configuration not stated)	> 100 µM
CCOC(=O)c1nc2ccc(C(F)(F)F)cc2nc1NCc1cc(OC)c(OC)c(OC)c1	48 µM
CC(C)(C)OC(=O)NC(Cc1ccc(OCc2ccccc2)cn1)C(=O)N1CCCCC1 (configuration not stated)	52.7 µM
CCOC(=O)/C=C(/C(=O)OCC)n1ccc(=O)n(Cc2cn(COCCOC(C)=O)nn2)c1=O	50.3 µM
O=C1CC(=Nc2ccc(Cl)cc2)C(c2ccccc2)N1c1ccccc1 (configuration not stated)	13.1 µM
C=CC(CCc1ccc(C(=O)OCC)cc1)c1c(N)nc(N)[nH]c1=O (configuration not stated)	> 100 µM
CCOP(C)(=O)C(N)Cc1ccc(OC)c(OC)c1 (configuration not stated)	> 100 µM

Tested on: SN12C renal
Test: DTP human tumour cell line panel, 48 h

SMILES	TGI
NP(=O)(Oc1c2occc2cc2ccc(=O)oc12)N(CCCl)CCCl (configuration not stated)	> 100 µM
CCOC(=O)c1nc2ccc(C(F)(F)F)cc2nc1NCc1cc(OC)c(OC)c(OC)c1	> 100 µM
CC(C)(C)OC(=O)NC(Cc1ccc(OCc2ccccc2)cn1)C(=O)N1CCCCC1 (configuration not stated)	> 100 µM
CCOC(=O)/C=C(/C(=O)OCC)n1ccc(=O)n(Cc2cn(COCCOC(C)=O)nn2)c1=O	> 100 µM
O=C1CC(=Nc2ccc(Cl)cc2)C(c2ccccc2)N1c1ccccc1 (configuration not stated)	> 100 µM
C=CC(CCc1ccc(C(=O)OCC)cc1)c1c(N)nc(N)[nH]c1=O (configuration not stated)	> 100 µM
CCOP(C)(=O)C(N)Cc1ccc(OC)c(OC)c1 (configuration not stated)	> 100 µM

Tested on: HCT-15 colon
Test: DTP human tumour cell line panel, 48 h

SMILES	TGI
NP(=O)(Oc1c2occc2cc2ccc(=O)oc12)N(CCCl)CCCl (configuration not stated)	> 100 µM
CCOC(=O)c1nc2ccc(C(F)(F)F)cc2nc1NCc1cc(OC)c(OC)c(OC)c1	> 100 µM
CC(C)(C)OC(=O)NC(Cc1ccc(OCc2ccccc2)cn1)C(=O)N1CCCCC1 (configuration not stated)	> 100 µM
CCOC(=O)/C=C(/C(=O)OCC)n1ccc(=O)n(Cc2cn(COCCOC(C)=O)nn2)c1=O	55.6 µM
O=C1CC(=Nc2ccc(Cl)cc2)C(c2ccccc2)N1c1ccccc1 (configuration not stated)	> 100 µM
C=CC(CCc1ccc(C(=O)OCC)cc1)c1c(N)nc(N)[nH]c1=O (configuration not stated)	> 100 µM
CCOP(C)(=O)C(N)Cc1ccc(OC)c(OC)c1 (configuration not stated)	> 100 µM

Tested on: A549 NSCLC
Test: DTP human tumour cell line panel, 48 h

SMILES	TGI
NP(=O)(Oc1c2occc2cc2ccc(=O)oc12)N(CCCl)CCCl (configuration not stated)	> 100 µM
CCOC(=O)c1nc2ccc(C(F)(F)F)cc2nc1NCc1cc(OC)c(OC)c(OC)c1	> 100 µM
CC(C)(C)OC(=O)NC(Cc1ccc(OCc2ccccc2)cn1)C(=O)N1CCCCC1 (configuration not stated)	> 100 µM
CCOC(=O)/C=C(/C(=O)OCC)n1ccc(=O)n(Cc2cn(COCCOC(C)=O)nn2)c1=O	> 100 µM
O=C1CC(=Nc2ccc(Cl)cc2)C(c2ccccc2)N1c1ccccc1 (configuration not stated)	> 100 µM
C=CC(CCc1ccc(C(=O)OCC)cc1)c1c(N)nc(N)[nH]c1=O (configuration not stated)	> 100 µM
CCOP(C)(=O)C(N)Cc1ccc(OC)c(OC)c1 (configuration not stated)	> 100 µM

Tested on: CCRF-CEM leukemia
Test: DTP human tumour cell line panel, 48 h

SMILES	TGI
NP(=O)(Oc1c2occc2cc2ccc(=O)oc12)N(CCCl)CCCl (configuration not stated)	> 100 µM
CC(C)(C)OC(=O)NC(Cc1ccc(OCc2ccccc2)cn1)C(=O)N1CCCCC1 (configuration not stated)	> 100 µM
CCOC(=O)/C=C(/C(=O)OCC)n1ccc(=O)n(Cc2cn(COCCOC(C)=O)nn2)c1=O	4.8 µM
